# Measured values as given in patent publication US20160039842A1, “OXAZOLO[5,4-C]QUINOLIN-2-ONE COMPOUNDS AS BROMODOMAIN INHIBITORS” (EPIGENETIX, INC., priority 2013, published 2016).
# Molecular target: T1, BRD4(BD1) (Homo sapiens, UniProt O60885)
# T1 construct: purchased BPS Bioscience
# Assay: In Vitro Bromodomain Inhibition Assay (AlphaLISA, H4-tetraacetyl peptide)
# Assay type: binding
# Conditions: His-tagged BRD4(BD1) 200 nM, biotinylated H4-tetraacetyl peptide 200 nM, room temperature
# Experimental: To measure activity of bromodomain inhibitors, a His-epitope tagged BRD4 BD149-170 was purchased from BPS Bioscience. BRD4 binding and inhibition was assessed by monitoring the engagement of biotinylated H4-tetraacetyl peptide (H4K5/8/12/16; AnaSpec #64989-025) with the target using the AlphaLISA technology (Perkin-Elmer). Specifically, in a 384 well OptiPlate, BRD4(BD1) (200 nM final) was pre-incubated with either DMSO (final 1.0% DMSO) or a compound dilution series in DMSO. All reagents were diluted in assay buffer containing 50 mM HEPES (pH 7.4), 100 mM NaCl, 0.1% (w/v) BSA, and 0.05% (w/v) CHAPS. After a 30 minute incubation at room temperature, H4 peptide was added (200 nM final) and the reaction was incubated an additional 30 minutes at room temperature. Alpha. streptavidin donor beads and AlphaLISA nickel chelate acceptor beads were then added to a final concentration of 10 ug/mL each. After one hour, equilibration plates were read on an Envision instrument and IC50s calculated using a four parameter non-linear curve fit.
row,Structure (SMILES),IC50 [nM]
1,"COc1cc2c(cc1-c1c(C)noc1C)nc(C)c1oc(=O)n([C@H](C)c3ccccc3)c12 [Example 36, 7-(3,5-Dimethylisoxazol-4-yl)-8-methoxy-4-methyl-1-[(1R)-1-phenylethyl]oxazolo[5,4-c]quinolin-2-one]",< 1000
2,"CCOC(=O)c1nc2cc(-c3c(C)noc3C)c(OC)cc2c2c1oc(=O)n2[C@H](C)c1ccccc1 [Example 34, Ethyl 7-(3,5-Dimethylisoxazol-4-yl)-8-methoxy-2-oxo-1-[(1R)-1-phenylethyl]oxazolo[5,4-c]quinoline-4-carboxylate]",< 1000
3,"CCOC(=O)c1nc2cc(-c3c(C)noc3C)c(OC)cc2c2c1oc(=O)n2Cc1ccccc1 [Example 1, Ethyl 1-benzyl-7-(3,5-dimethylisoxazol-4-yl)-8-methoxy-2-oxo-oxazolo[5,4-c]quinoline-4-carboxylate]",< 1000
4,"COc1cc2c(cc1-c1c(C)noc1C)nc(CO)c1oc(=O)n(Cc3ccccc3)c12 [Example 33, 1-Benzyl-7-(3,5-dimethylisoxazol-4-yl)-4-(hydroxymethyl)-8-methoxy-oxazolo[5,4-c]quinolin-2-one]",< 1000
5,"COc1cc2c(cc1-c1c(C)noc1C)ncc1oc(=O)n(Cc3c(C)cccc3F)c12 [Example 37, 7-(3,5-Dimethylisoxazol-4-yl)-1-[(2-fluoro-6-methyl-phenyl)methyl]-8-methoxy-oxazolo[5,4-c]quinolin-2-one]",< 1000
6,"COc1cc2c(cc1-c1c(C)noc1C)ncc1oc(=O)n([C@H](C)c3ccccn3)c12 [Example 3, 7-(3,5-Dimethylisoxazol-4-yl)-8-methoxy-1-[(1R)-1-(2-pyridyl)ethyl]oxazolo[5,4-c]quinolin-2-one]",< 1000
7,"COCc1nc2cc(-c3c(C)noc3C)c(OC)cc2c2c1oc(=O)n2[C@H](C)c1ccccc1 [Example 38, 7-(3,5-Dimethylisoxazol-4-yl)-8-methoxy-4-(methoxymethyl)-1-[(1R)-1-phenylethyl]oxazolo[5,4-c]quinolin-2-one]",< 1000
8,"COc1cc2c(cc1-c1c(C)noc1C)ncc1oc(=O)n([C@H](C)c3ccccc3)c12 [Example 12A, 7-(3,5-Dimethylisoxazol-4-yl)-8-methoxy-1-[(1R)-1-phenylethyl]oxazolo[5,4-c]quinolin-2-one]",< 1000
9,"COc1cc2c(cc1-c1c(C)noc1C)nc(CO)c1oc(=O)n([C@H](C)c3ccccc3)c12 [Example 35, 7-(3,5-Dimethylisoxazol-4-yl)-4-(hydroxymethyl)-8-methoxy-1-[(1R)-1-phenylethyl]oxazolo[5,4-c]quinolin-2-one]",< 1000
10,"COc1cc2c(cc1-c1c(C)noc1C)ncc1oc(=O)n(Cc3ccccc3)c12 [Example 2, 1-Benzyl-7-(3,5-dimethylisoxazol-4-yl)-8-methoxy-oxazolo[5,4-c]quinolin-2-one]",< 1000
11,"COc1cc2c(cc1-c1c(C)noc1C)ncc1oc(=O)n(Cc3ccccc3Cl)c12 [Example 18, 1-[(2-Chlorophenyl)methyl]-7-(3,5-dimethylisoxazol-4-yl)-8-methoxy-oxazolo[5,4-c]quinolin-2-one]",< 1000

# Now from value to molecule:
row,IC50 [nM],Structure (SMILES)
1,< 1000,"COc1cc2c(cc1-c1c(C)noc1C)nc(C(=O)O)c1oc(=O)n([C@H](C)c3ccccc3)c12 [Example 51, 7-(3,5-Dimethylisoxazol-4-yl)-8-methoxy-2-oxo-1-[(1R)-1-phenylethyl]oxazolo[5,4-c]quinoline-4-carboxylic acid]"
2,< 1000,"COc1cc2c(cc1-c1c(C)noc1C)ncc1oc(=O)n([C@H](C)c3cccc(C#N)c3)c12 [Example 44, 3-[(1R)-1-[7-(3,5-Dimethylisoxazol-4-yl)-8-methoxy-2-oxo-oxazolo[5,4-c]quinolin-1-yl]ethyl]benzonitrile]"
3,< 1000,"COc1cc2c(cc1-c1c(C)noc1C)ncc1oc(=O)n([C@H](C)c3ccc(Cl)cc3)c12 [Example 40, 1-[(1R)-1-(4-Chlorophenyl)ethyl]-7-(3,5-dimethylisoxazol-4-yl)-8-methoxy-oxazolo[5,4-c]quinolin-2-one]"
4,< 1000,"COc1cc2c(cc1-c1c(C)noc1C)ncc1oc(=O)n([C@H](C)c3ccc(C#N)cc3)c12 [Example 43, 4-[(1R)-1-[7-(3,5-Dimethylisoxazol-4-yl)-8-methoxy-2-oxo-oxazolo[5,4-c]quinolin-1-yl]ethyl]benzonitrile]"
5,< 1000,"CCNCc1nc2cc(-c3c(C)noc3C)c(OC)cc2c2c1oc(=O)n2Cc1ccccc1 [Example 52, 1-Benzyl-7-(3,5-dimethylisoxazol-4-yl)-4-(ethylaminomethyl)-8-methoxy-oxazolo[5,4-c]quinolin-2-one]"
6,< 1000,"COc1cc2c(cc1-c1c(C)noc1C)nc(CN1CCOCC1)c1oc(=O)n(Cc3ccccc3)c12 [Example 41, 1-Benzyl-7-(3,5-dimethylisoxazol-4-yl)-8-methoxy-4-(morpholinomethyl)oxazolo[5,4-c]quinolin-2-one]"
7,< 1000,"COc1cc2c(cc1-c1c(C)noc1C)ncc1oc(=O)n(Cc3ccc(C)cc3)c12 [Example 46, 7-(3,5-Dimethylisoxazol-4-yl)-8-methoxy-1-(p-tolylmethyl)oxazolo[5,4-c]quinolin-2-one]"
8,< 1000,"COc1cc2c(cc1-c1c(C)noc1C)ncc1oc(=O)n(Cc3ccccc3C#N)c12 [Example 50, 2-[[7-(3,5-Dimethylisoxazol-4-yl)-8-methoxy-2-oxo-oxazolo[5,4-c]quinolin-1-yl]methyl]benzonitrile]"
9,< 1000,"COc1cc2c(cc1-c1c(C)noc1C)ncc1oc(=O)n([C@H](C)c3cccc(Cl)c3)c12 [Example 45, 1-[(1R)-1-(3-Chlorophenyl)ethyl]-7-(3,5-dimethylisoxazol-4-yl)-8-methoxy-oxazolo[5,4-c]quinolin-2-one]"
10,< 1000,"COc1cc2c(cc1-c1c(C)noc1C)nc(CN(C)C)c1oc(=O)n([C@H](C)c3ccccc3)c12 [Example 42, 4-(Dimethylaminomethyl)-7-(3,5-dimethylisoxazol-4-yl)-8-methoxy-1-[(1R)-1-phenylethyl]oxazolo[5,4-c]quinolin-2-one]"
11,< 1000,"COc1cc2c(cc1-c1c(C)noc1C)ncc1oc(=O)n(Cc3ccc(OC(F)(F)F)cc3)c12 [Example 54, 7-(3,5-Dimethylisoxazol-4-yl)-8-methoxy-1-[[4-(trifluoromethoxy)phenyl]methyl]oxazolo[5,4-c]quinolin-2-one]"
12,< 1000,"COc1cc2c(cc1-c1c(C)noc1C)ncc1oc(=O)n(Cc3ccccc3S(C)(=O)=O)c12 [Example 49, 7-(3,5-Dimethylisoxazol-4-yl)-8-methoxy-1-[(2-methylsulfonylphenyl)methyl]oxazolo[5,4-c]quinolin-2-one]"
13,< 1000,"CC[C@H](c1ccccc1)n1c(=O)oc2cnc3cc(-c4c(C)noc4C)c(OC)cc3c21 [Example 39, 7-(3,5-Dimethylisoxazol-4-yl)-8-methoxy-1-[(1R)-1-phenylpropyl]oxazolo[5,4-c]quinolin-2-one]"
14,< 1000,"CCN(Cc1nc2cc(-c3c(C)noc3C)c(OC)cc2c2c1oc(=O)n2Cc1ccccc1)C(C)=O [Example 48, N-[[1-Benzyl-7-(3,5-dimethylisoxazol-4-yl)-8-methoxy-2-oxo-oxazolo[5,4-c]quinolin-4-yl]methyl]-N-ethyl-acetamide]"
15,< 1000,"COc1cc2c(cc1-c1c(C)noc1C)nc(CN(C)C)c1oc(=O)n(Cc3ccccc3)c12 [Example 47, 1-Benzyl-4-(dimethylaminomethyl)-7-(3,5-dimethylisoxazol-4-yl)-8-methoxy-oxazolo[5,4-c]quinolin-2-one]"
